The results in this text go back to US8007790B2, “Methods for treating polycystic kidney disease (PKD) or other cyst forming diseases” (Stowers Institute for Medical Research, priority 2006, dated 2011).

{P} = phosphate

Data set [1] relates to cultured embryonic kidneys (E15.5). As to the kind of experiment: Mouse embryonic kidney organ culture cyst formation assay. How it is done:
Embryonic kidneys were dissected in PBS (with calcium and magnesium) plus penicillin-streptomycin-glutamine (GiBCO, Grand Island, N.Y.) from embryos of wild type CD1 mice at E15.5, E16.5 or E17.5 and of C57BL/6 Pkd1+/− or C57BL/6 Pkd2+/− mice or their wild type counterparts at E15.5. The dissected kidneys were cultured at 37° C. in DMEM/F12 containing 2 mM L-glutamine, 10 mM Hepes, 5 μg/ml insulin, 5 μg/ml transferrin, […] selenium, 25 ng/ml prostaglandin E1, 32 pg/ml T3 and 250 IU/ml penicillin-streptomycin. The kidneys were cultured with or without TNF-alpha (Genzyme Diagnostic, Cambridge, Mass.) at different concentrations for 48 hours and then 50 μM 8-Bromo-cyclic AMP (Sigma, St. Louis, Mo.) was added for 5 days. The cultured kidneys were then fixed with 4% paraformaldehyde (PFA) in PBS for 6 hours, washed with PBS twice for 5 minutes each, and transferred to 70% EtOH for short-term storage at room temperature or for more extended storage at 4° C. The fixed kidney samples were subsequently processed for Hematoxylin and Eosin staining following a common histology protocol.
To test the effect of TNF-alpha treatment, the culture conditions were modified using E15.5 kidneys and a low concentration of cAMP, such that there was no cyst formation (0/32 kidneys observed) in the absence of TNF-alpha (see top panel FIGS. 2A and 2B). […] (FIG. 2B). […] Thus, in FIG. 2B, treatment with different concentrations of TNF-alpha for 5 days triggered cyst formation in Pkd2+/− cultured kidneys from E15.5 embryos.

The subject of data set [2] is TNF-alpha receptor (TNFR). In words: Immunoblot of TNFR level in TNF-alpha treated IMCD cells. It is filed as cell-based. How it is done: (§1) The disruption of PC2 localization by TNF-alpha was further confirmed using immunoprecipitation, western blotting, and a TUNEL Assay. Immunoprecipitation and Western blotting were performed on whole-cell lysates as previously described. Li et al, Polycystin-1 and polycystin-2 regulate the cell cycle through the helix-loop-helix inhibitor Id2. Nat Cell Biol, 7(12):1202-12 (2005). The antibodies used for Western blotting included rabbit polyclonal anti-FIP2 51, rabbit anti-PC2 polyclonal antibody 96525 50, rabbit anti-PC1 polyclonal antibody 96521, rabbit anti-Rab8 polyclonal antibody and rabbit anti-TNFR-I polyclonal antibody. Secondary antibodies used included: goat-anti-rabbit IgG-fluorescein isothiocyanate (FITC Molecular Probes, Eugene, Oreg.), goat-anti-mouse IgG-Texas Red, (1:500 dilution; Molecular Probes). For western blotting, goat-anti-rabbit IgG-horseradish peroxidase (HRP or goat-anti-mouse IgG-HRP, 1:10,000 dilution; Amersham Pharmacia Biotech) were used as secondary antibodies.
(§2) Primary cell cultures were prepared as described previously. The cells were propagated in DMEM/F12 supplemented with 5% FBS, 5 μg/ml insulin, 5 μg/ml transferrin and 5 ng/ml sodium selenite (ITS) and 100 IU/ml penicillin G and 0.1 mg/ml streptomycin. […]
(A western blot detects proteins with antibodies after separation by electrophoresis.)

Data set [3] relates to FIP2. In words: Immunoblot of FIP2 level in TNF-alpha treated IMCD cells. It is filed as cell-based. How it is done:
as §1, §2

The test system of data set [4] is Pkd2+/- mice. As to the kind of experiment: Cyst formation in Pkd2+/- mice injected with TNF-alpha. The note with it: 5 μg/mouse/week intraperitoneal, week 4 to week 8.5; control 0 of 10; Fisher's exact test p=0.04. It counts as in vivo. How it is done: The in vitro results described above indicate that TNF-alpha may be a strong physiological modifier of FIP2 that promotes the ADPKD disease phenotype at the organismal level. To test this hypothesis in vivo, 4 week old Pkd2+/− mice were directly injected intra-peritoneally with TNF-alpha (5 μg/mouse, 1 injection/wk) for 4 weeks. Pkd2 mutant mice (Pkd2-183) were kindly provided by Stephan Somlo (Yale University). For TNF-alpha (Genzyme Diagnostic, Cambridge, Mass.) treatment experiments, mice were intraperitoneally injected weekly, from week 4 (day 28) to week 8.5 (day 60), with 5 μg of TNF-alpha per mouse per week or phosphate buffered saline (PBS). 9-17 week old Pkd2+/− mice developed cysts at a frequency of 0.21. Accordingly, the natural frequency of cyst formation may be much lower in the 4 week olds.

Data set [5] has as its system PC2 localization in inner medullary collecting duct (IMCD) cells. As to the kind of experiment: Immunofluorescence of PC2 localization in IMCD cells after TNF-alpha induction. It counts as cell-based. How it is done: […] IMCD (ATCC catalog no. CRL-2123) cells were cultured in Dulbecco's modified Eagle's medium/F12 medium supplemented with 10% (v/v) fetal bovine serum (Invitrogen). Then, these cells were induced with TNF-alpha at a final concentration of 200 ng/ml. Immunofluorescence of the IMD cells was performed before and after 16 hours of TNF-alpha exposure.
Immunofluorescence was carried out as previously described. Li et al, Polycystin-1 and polycystin-2 regulate the cell cycle through the helix-loop-helix inhibitor Id2. Nat Cell Biol, 7(12):1202-12 (2005). Primary antibodies were used at the following dilutions: FIP2 (1:100), PC1 (1:500), PC2 (1:500), and flag (1:500). Secondary antibodies used included goat-anti-rabbit IgG-fluorescein isothiocyanate (Molecular Probes, Eugene, Oreg.) and goat-anti-mouse IgG-Texas Red (1:500 dilution; Molecular Probes). Images were captured on an inverted microscope (Axiovert 200M, Carl Zeiss, inc.) equipped with a spinning disc confocal head (Yogogawa), Argon-Krypton laser system (Prairie Technologies, Inc.), and ORCA-ER CCD camera (Hamamatsu). Images were acquired using the Metamorph software (Molecular Devices) and 3D image reconstruction was performed using the Volocity (Improvision, Inc.) software.
The disruption of PC2 localization by TNF-alpha was further confirmed using immunoprecipitation, western blotting, and a TUNEL Assay. […]

Data set [6] has as its system IMCD cells. It is filed as cell-based. The procedure:
To confirm that localization of PC2 was not due to cell death, a TUNEL Assay was performed. Cells treated with or without TNF-alpha were fixed with 4% PFA. The TUNEL assay was performed using a fluorescent apoptosis-detection system (R&D systems, Minneapolis, Minn.) according to the manufacturer's instructions. Fixed cells were treated with TACS-nuclease for the positive control.

The subject of data set [7] is Pkd2+/- mice. As to the kind of experiment: Cyst formation in Pkd2+/- mice treated with etanercept. The note with it: 25 μg/mouse/week, 10 weeks, n=14; PBS control 25% (n=16); Fisher's exact test p=0.05. It is filed as in vivo. The procedure: Chronic inhibition of FIP2 expression by a FIP2 inhibitor such as a TNF-alpha inhibitor may alleviate cyst formation. For the TNF-alpha inhibitor etanercept (AMGEN, Thousand Oaks, Calif.), treatment experiments, mice were intraperitoneally injected weekly, from week 8.5 (day 60) to week 18.5 (day 130), with 25 μg of etanercept per mouse per week or phosphate buffered saline (PBS).
To this end, 8-week old Pkd2+/− mice were treated with either etanercept […] administered at 25 μg/mouse/week), or phosphate buffered saline (PBS) in the control group. […] This frequency is consistent with that reported previously (21%, n=29). Remarkably, none of etanercept-treated mice developed kidney cysts (n=14).

The test system of data set [8] is FIP2. In words: FIP2 siRNA knock-down of FIP2 expression in IMCD cells (Western blot). The settings on record: transfected IMCD cells, comparison of 4 siRNAs. It counts as cell-based. How it is done: (§3) RNAi specific to FIP2 was used to test if the effect of TNF-alpha on PC2 localization was FIP2-dependent. IMCD cells were transfected with siRNA specific for FIP2 to determine if FIP2 caused mislocalization of PC2 upon TNF-alpha induction.
(§4) The transfection was performed using the DharmaFECT siRNA transfection reagent (Dharmacon, Chicago, Ill.) according to the manufacturer's protocol.
(§5) In FIG. 7A, 4 different siRNAs against FIP2 were transfected into IMCD cells. In FIG. 7B, a Western blot was performed as described above using anti-FIP2 antibody to determine FIP2 levels in IMCD cells, which were transfected with siRNA#05 (SEQ ID NO: 2) and #08 (SEQ ID NO: 8) and then treated with TNF-alpha for 16 hours. In FIGS. 7C-7F, immunostaining was performed as described above with 96525 anti-PC2 antibody or YCC2 anti-PC2 antibody at a concentration of 1:500 with IMCD cells transfected with siRNA#08 (SEQ ID NO: 8) before and after TNF-alpha induction.

The test system of data set [9] is PC2 localization in IMCD cells. As to the kind of experiment: Rescue of PC2 localization by FIP2 siRNA in TNF-alpha treated IMCD cells (immunostaining). It counts as cell-based. The procedure: as §3, §4
In FIGS. 1C and 1 D, anti-PC2 antibodies (96525 FIG. 1C; YCC2 FIG. 1D) at a concentration of 1:500 were used to determine whether FIP2 siRNA reduces or eliminates FIP2 expression to restore PC2 localization in TNF-alpha treated IMCD cells.
as §5

For TNF-alpha, the “lowest TNF-alpha concentration resulting in cyst formation” value was 1.5 ng/mL in data set [1] (Pkd2+/- embryonic kidneys, 5 days) and 6.25 ng/mL in [1] (wild type embryonic kidneys, five days). The “cultured kidneys with cyst formation” value in data set [1] (wild type embryonic kidneys, 6.25-12.5 ng/ml TNF-alpha, five days, low cAMP) is on record as 20/20. Besides, the “increase of TNFR levels” value in data set [2] came to 35%. In [3], the “induction of FIP2 level” value is on record as 2 fold. Also, the “mice that developed unilateral cysts” value in data set [4] is given as 4 of the 10. Besides, in data set [5] (200 ng/ml TNF-alpha, 16 hours, anti-PC2 antibody 96525), the “cells showing loss of PC2 staining at the plasma membrane and cilia” value turned out to be 100%. For the same substance, in data set [5] (TNF-alpha 16 hr, YCC2 anti-PC2 antibody, confocal microscopy), the PC2 cilia localization entry is given as “loss of PC2 localization along the primary cilia”. Moreover, in data set [6], the “TUNEL staining (cell death)” value is listed as “negative for TUNEL staining”.
As to etanercept, the “mice that developed kidney cysts” value in [7] is “none”.
In the case of “siRNA#08: siRNA against FIP2 (Dharmacon); sense SEQ ID NO: 7, antisense SEQ ID NO: 8 (sense CCAUGAAGCUAAAUAAUCAUU; antisense UGAUUAUUUAGCUUCAUGGUU; sense: RNA, backbone not given here; antisense: RNA, 5' {P}, backbone not given here)”, in [8], the “effect on FIP2 expression” value was “strongest effect”. Further, the “PC2 localization after TNF-alpha induction” value in [9] (immunostaining with 96525 anti-PC2 antibody) is “rescued the TNF-alpha effect on PC2 localization”. The “PC2 cilia localization after TNF-alpha induction” value in data set [9] (immunostaining with YCC2 anti-PC2 antibody) is “rescued the PC2 cilia localization”.
